Each molecule was assayed against Human immunodeficiency virus type 1 protease (Human immunodeficiency virus 1, UniProt Q72874) (assay: Inhibitory activity against HIV-1 proteinase).

`CC(C)CN1CC(O)(CNC(=O)OC(C)(C)C)C[C@@H]1C(=O)NC(C)(C)C` (stereo not given in full) and `CC(C)CN1CC(O)(CNC(=O)OC(C)(C)C)C[C@H]1C(=O)NC(C)(C)C` (stereo not given in full) cannot be ordered by IC50: greater than 90 µM for the first, greater than 90 µM for the second.

First: CC(C)CN1CC(O)(CNC(=O)[C@H]2N[C@@H]([C@H](NC(=O)Cc3ccccc3)C(=O)NCc3ccccc3)SC2(C)C)C[C@H]1C(=O)NC(C)(C)C (stereo not given in full)
Second: CC(C)CN1CC(O)(CNC(=O)[C@@H]2N[C@@H]([C@H](NC(=O)Cc3ccccc3)C(=O)NCc3ccccc3)SC2(C)C)C[C@H]1C(=O)NC(C)(C)C (stereo not given in full)
The IC50 of the first is 2.3-fold higher: 0.07 µM for the first, 0.03 µM for the second. The second is the more potent here.

`CC(C)CN1C[C@](O)([C@H](CC2CCCCC2)NC(=O)CC(C)(C)C)C[C@H]1C(=O)NC(C)(C)C` was tested, and the IC50 was 9 µM.
